# Data taken from patent US10967023B2, “Preparation of a chinese medicinal composition including ginseng, ginkgo leaf and stigma croci” (priority 2014, dated 2021).
# Experiments:
# thrombosis of rats = assay: Artery-vein shunt thrombosis in rats (thrombus formation in vivo); parameters: species or system SD rats; settings: compositions 3 g/kg, aspirin 0.0044 g/kg
# Method: (§1) The same volume of saline was given to the Blank control group. The rats were administered once a day for 7 days.
# Experiments of thrombus formation, in vivo: 1 h after 7 days of administration, the rats of the groups were hypnotized through intraperitoneal injection with 0.8% sodium pentobarbital, with a dose of 40 mg/kg referring to the artery-vein shunt thrombosis method [Zhang Jun Tian. Modern pharmacology experimental methods. Beijing: Beijing Medical University Press, 1998; 1216-1217], right common carotid artery and left external jugular vein were separated. Three sections of polyethylene plastic pipe were taken, the diameter of the middle section was 2 mm, the length was about 8.5 cm, the diameter of the two plastic pipe of the two ends were 1.5 mm, the length were 10 cm respectively. A No 4 operation silk thread that was weighed previously with a length of about 7 cm was placed in the plastic pipe in the middle section, wherein one end of the thread with the length of 0.5 cm was exposed to the pipe to fix the position, and a silk thread with a length of 6.5 cm was kept in the pipe, the polyethylene plastic pipe was filled with heparin solution, one end of the plastic tube was inserted into the left external jugular vein, the other end of the plastic tube was inserted into the right common carotid artery, then the bloodstream was opened immediately. […]
# [1] = test system: ADP induced platelet aggregation of rats; assay: Platelet aggregation inhibition test (ADP induced, PRP of dosed rats); format: in vivo, SD rats; settings: ADP 5 μmol/L
# Method: as §1
# Platelet aggregation inhibition test: 1 h after 7 days of administration to the rats of the groups, the rats were hypnotized according to the above method, a tube was inserted into the common carotid artery to collect blood, the blood was added 3.8% sodium citrate in a ratio of 1:9 to become anticoagulant, when it was centrifuged for 5 minutes at 500 rpm, the upper portion of the plasma was taken to be the platelet-rich plasma (PRP), the remaining part was centrifuged again for 15 minutes at 3,500 rpm, the supernatant was platelet poor plasma (the PPP), the number of platelet of PRP was counted with platelet counting instrument, the number of platelet of PRP was adjusted with PPP to about […]. The temperature of the sample tube was kept at 37° C. for 3 minutes, then 5 μL ADP was added (final concentration 5 μmol/L), stirring speed of the stirrer was 500 r/min, the space between the rows of the movement of the recording pen was recorded after adding, and the aggregation rate was calculated according to the following formula: Aggregation rate(%)=the itinerary of adding ADP×100%/0˜100% of the itinerary
# plasma NPY, β-EP = assay: Plasma NPY, β-EP of VaD rats (RIA); format: in vivo, SD rats; settings: 2 months of administration, compositions 3 g/kg, Huperzine 0.00006 g/kg, Tanakan 0.02 g/kg
# Method: (§2) The sham group and the model group were given gavages of distilled water of the same volume. 2 months, 3 months after the models were created (1 month and 2 months after the administration), the time of the duration of MORRIS water maze were measured. After the last measurement, blood was taken from abdomens aorta, the brain was taken quickly, and the left hemisphere was solidified with liquid nitrogen. In ice bath, with 0.15M HCLO4 homogenates (1 ml was added for 100 mg brain weight) 14000×g 4° C., centrifuged for 20 min, the supernatant was taken, filtered with 0.22 μm membrane, 10 μl was fed into the auto sampler, the content of Ach was determined using HPLC; right hemisphere, 4 for each group, were solidified with formalin, dehydrated, embedded, sliced, HE dyed for pathological examination, homogenates of six brain tissue, AchE, SOD activity and MDA content (colorimetric method) were measured; Indicators such as neuropeptide Y, β-EP in plasma were determined (RIA). The results were analyzed statistically (t test).
# [2] = test system: hippocampal pyramidal cell; assay: Pathological examination of hippocampus of VaD rats (HE); format: in vivo, SD rats; settings: 2 months of administration
# Method: as §2
# [3] = test system: scopolamine hydrobromide induced acquired memory disorder model mice; assay: Scopolamine hydrobromide induced acquired memory disorder model mice, jumping platform test; format: in vivo, ICR mice; settings: scopolamine 6 mg/kg mice; compositions 4 g/kg, Huperzine 0.00008 g/kg, Tanakan 0.03 g/kg, 15 days
# Method: The animals were intragastric administered once a day at a dose of 20 mL/kg, distilled water was given to blank control group and model group, one time a day, lasted for 15 days, 50 minutes after the administration on the 14th day, saline was given to the mice of blank control group through intraperitoneal injection in a volume of 10 ml/kg, the rest animals were given scopolamine through injection (6 mg/kg). 10 minutes later, the mice were placed on the jumping program automatic controller, to adapt for 3 minutes, then power on, the mice were stimulated by electric shock for 5 times, when the mice were stimulated, they jump to the diving platform to avoid electric shock, trained 5 minutes to obtain memory. 60 minutes after the administration on the 15th day, the animals were placed on the jumping program automatic controller, the number of times that the mice left the jump platform and received electric shock and the time of occurrence (the incubation period) were determined (number of errors). The results were analyzed statistically (t test).
# SOD, MDA of brain tissue = assay: Activity of SOD and content of MDA in the brains of VaD rats; format: in vivo, SD rats; settings: 2 months of administration, compositions 3 g/kg, Huperzine 0.00006 g/kg, Tanakan 0.02 g/kg
# Method: as §2
# [4] = test system: sodium nitrite induced consolidate memory disorder mice; assay: Sodium nitrite induced consolidate memory disorder model mice, jumping platform test; format: in vivo, ICR mice; settings: sodium nitrite 120 mg/kg mice; compositions 4 g/kg, Huperzine 0.00008 g/kg, Tanakan 0.03 g/kg, 15 days
# Method: (§3) Experimental grouping was the same as that of test example 5.
# The animals were intragastric administered once a day at a dose of 20 mL/kg, distilled water was given to the animals of blank control group and model group, one time a day, lasted for 15 days. 60 minutes after the administration on the 14th day, the mice were placed on the jumping program automatic controller, to train for 5 minutes, and the mice were stimulated by electric shock for 5 times. After the treatment, saline was given immediately to the mice of comparative group through back and neck subcutaneous injection in a volume of 10 ml/kg, sodium nitrite (120 mg/kg) were injected to the rest of the animals. 60 minutes after the administration on the 15th day, the animals of the groups were placed on the jumping program automatic controller, the number of errors and the incubation period of mice within 5 minutes were determined. The results were analyzed statistically (t test).
# [5] = test system: SOD, GSH-Px, MDA, NO of brain tissue; assay: Activities of SOD, GSH-Px and contents of MDA, NO of brain tissue (ischemia-reperfusion + D-galactose mice); format: in vivo, ICR mice; settings: 8 weeks, compositions 4 g/kg, Huperzine 0.00008 g/kg, Tanakan 0.03 g/kg
# Method: (§4) The mice were anaesthetized with chloral hydrate, incisions were made in the necks, ischemia and reperfusion surgery was applied: bilateral common carotid arteries were separated, were clipped by bulldog clamp for 20 minutes, loosened for 2 minutes, then were clipped again for 20 minutes then loosened, at the same time, the tails of the mice were cut, 0.5 mL blood was collected, repeated cerebral ischemia-reperfusion injury was formed, sutured the wounds of the rats then fed them in cages. 7 days after the operation, D-galactose (100 mg/kg, 10 mL/kg) was given to the mice through subcutaneous injection on the back, and simultaneously, the mice were intragastric administered (20 mL/kg) once a day, lasted for 8 weeks; for the sham group, common carotid arteries were separated without clipping, the same volume of saline was injected through subcutaneous injection on the back; for D-galactose group, common carotid arteries were separated without clipping, D-galactose (100 mg/kg, 10 mL/kg) was injected through subcutaneous injection on the back; the ischemia reperfusion group was received an ischemia reperfusion operation, the same volume of saline was injected through subcutaneous injection on the back. The sham group, complex model group, D-galactose group were given gavages of distilled water of the same volume.
# (§5) 8 weeks after the administration, the mice were trained for 3 days in the MRRIS water maze, two times a day, the learning and memory behavior were determined on the 4th day, on the 5th day, the heads were cut to take the brains, the brains were formulated into 10% homogenates with saline, the activities of AchE, SOD, GSH-Px, the contents of biochemical indicators such as MDA, NO in the brain tissues were determined (colorimetry). The results were analyzed statistically (t test)
# [6] = test system: ischemic reperfusion and D-galactose induced learning and memory impairment mice; assay: MORRIS water maze in mice with ischemic reperfusion and subcutaneous D-galactose induced learning and memory impairment; format: in vivo, ICR mice; settings: 8 weeks
# Method: as §4, §5
# [7] = test system: Ach in brains of VaD rats; assay: Content of Ach in brains of VaD rats (HPLC); format: in vivo, SD rats; settings: 2 months of administration, compositions 3 g/kg, Huperzine 0.00006 g/kg, Tanakan 0.02 g/kg
# Method: Mobile phase: Na2HPO4 (100 mmol/L), TMACl (0.5 mmol/L), OSA (2.0 mmo/L), MB reagent (0.005% v/v), diluted with redistilled water, 85% PH was adjusted to8.00 by H3PO4, filtered by 0.22 μm aqueous membrane.
# Chromatographic conditions: ESA582 type binary pump system, ESA ACH-3 column (150×3 mm 5 μm I.D.), former ESA immobilized enzyme reactor before columns (ESA ACH-SPR, 3 cm), flow rate, 0.35 mL/min, column temperature, 35° C.
# Test conditions: 5600 A electrochemical detector; 5040 type solid porous electrode (platinum working electrode, a solid state palladium reference electrode) potential: +300 mV.
# The results were analyzed statistically (t test).
# VaD rats = assay: MORRIS water maze in VaD rats (permanent ligation of bilateral common carotid artery); format: in vivo, SD rats
# Method: as §2
# [8] = test system: reserpine induced acquired memory disorder model mice; assay: Reserpine induced acquired memory disorder model mice, jumping platform test; format: in vivo, ICR mice; settings: reserpine 0.5 mg/kg mice; compositions 4 g/kg, Huperzine 0.00008 g/kg, Tanakan 0.03 g/kg, 15 days
# Method: as §3
# The animals were intragastric administered once a day at a dose of 20 mL/kg, distilled water was given to the blank control group and the model group, one time a day, lasted for 15 days. After the administration on the 14th day, saline was given immediately to the mice of the blank control group through back and neck subcutaneous injection in a volume of 10 ml/kg, the rest animals were given reserpine hydrochloride (0.5 mg/kg) through back and neck subcutaneous injection. 60 minutes after the injection, the mice were placed on the jumping program automatic controller, to adapt for 3 minutes, then power on, the mice were stimulated by electric shock for 5 times, when the mice were stimulated, they jump to the diving platform to avoid electric shock, trained 5 minutes to obtain memory. 60 minutes after the administration on the 15th day, the animals were placed on the jumping program automatic controller, the number of errors and the incubation period of mice within 5 minutes were determined. The results were analyzed statistically (t test).
# [9] = ischemia-reperfusion + D-galactose mice, compositions 4 g/kg, Huperzine 0.00008 g/kg, Tanakan 0.03 g/kg
smiles,measurement,setting,value
CC(=O)Oc1ccccc1C(=O)O [Aspirin],inhibition at 4.4 mg/kg,"thrombosis of rats; Rattus norvegicus, 168 h, 7 days, versus control group, read-out: Inhibition rate (thrombosis)",30.9%
same,Wet weights of thrombus,"thrombosis of rats; once a day 7 days, artery-vein shunt 20 minutes",0.056 ± 0.011 g
same,Platelet aggregation,"[1]; rats dosed 7 days (compositions 3 g/kg, aspirin 0.0044 g/kg), PRP",23.27 ± 3.06 %
same,aggregation inhibition rate,"[1]; rats dosed 7 days, versus control group",49.57%
"C/C=C1\[C@H]2C=C(C)C[C@]1(N)c1ccc(=O)[nH]c1C2 [Huperzine, huperzine A]",NPγ,"plasma NPY, β-EP",847.7 ± 189.1 pg/mL
same,β-EP,"plasma NPY, β-EP",1032.9 ± 109.5 pg/mL
same,Pathological examination: arrangement of the hippocampal pyramidal cells,[2],slightly loose
same,number of errors Within 5 minutes,[3],0.6 ± 0.6
same,the incubation period Within 5 minutes,[3],281.6 ± 39.4 s
same,MDA,"SOD, MDA of brain tissue",2.194 ± 0.251 μmol/mgprot
same,SOD,"SOD, MDA of brain tissue",51.7 ± 9.6 U/mgprot
same,The incubation time Within 5 min,[4],229.1 ± 94.6 s
same,number of errors Within 5 min,[4],0.5 ± 0.7
same,GSH-Px,[5],28.58 ± 2.87 U/mgprot
same,MDA,[5],4.651 ± 0.832 nmol/mgprot
same,NO,[5],1.442 ± 0.295 nmol/mgprot
same,SOD,[5],159.8 ± 21.2 U/mgprot
same,Length of path (MORRIS water maze),[6]; [9],355.8 ± 234.1 cm
same,Time of duration (MORRIS water maze),[6]; [9],21.7 ± 14.6 s
same,Search strategy (MORRIS water maze),"[6]; score: straight line type 1 point, tendency type 2, edge type 3, random type 4, mice",2.4 ± 1.0 points
same,Ach,[7],1992.6 ± 590.0 ng/g wet weight of brain tissue
same,"time of duration in MORRIS water maze, 2 months after the model was created","VaD rats; 1 month of administration, compositions 3 g/kg, Huperzine 0.00006 g/kg, Tanakan 0.02 g/kg",24.6 ± 19.0 s
same,"time of duration in MORRIS water maze, 3 months after the model was created","VaD rats; 2 months of administration, compositions 3 g/kg, Huperzine 0.00006 g/kg, Tanakan 0.02 g/kg",9.0 ± 5.2 s
same,"time of duration in MORRIS water maze, 1 month after the model was created",VaD rats; before administration,58.6 ± 26.6 s
same,number of errors Within 5 min,[8],0.6 ± 0.9
same,the incubation period Within 5 min,[8],243.1 ± 38.4 s
